Measurements taken from ChEMBL document CHEMBL4371025, “Discovery and evaluation of novel FAAH inhibitors in neuropathic pain model” (Bioorg Med Chem Lett, 2019).

Assays:
[1] = Clearance in Sprague-Dawley rat at 3 mg/kg, iv or 10 mg/kg, po administered as single dose via gavage by LC-MS/MS analysis; format: ADME, organism-based; details: in vivo
[2] = Drug level in plasma of Sprague-Dawley rat at 10 mg/kg, po administered as single dose via gavage measured at 2 hrs by LC-MS/MS analysis; format: ADME, organism-based
[3] = tested on: CYP3A4; assay: Selectivity ratio of IC50 for CYP3A4 in human liver microsomes using midazolam as substrate to IC50 for rat FFAH expressed in Escherichia coli; format: toxicity; details: probe midazolam, read-out: Ratio IC50
[4] = tested on: CYP2C9; assay: Selectivity ratio of IC50 for CYP2C9 in human liver microsomes to IC50 for rat FFAH expressed in Escherichia coli; format: toxicity; details: read-out: Ratio IC50
[5] = Drug level in plasma of Sprague-Dawley rat at 10 mg/kg, po administered as single dose via gavage measured at 32 hrs by LC-MS/MS analysis; format: ADME, organism-based
[6] = target: Cytochrome P450 2D6 (Homo sapiens, UniProt P10635); assay: Inhibition of CYP2D6 in human liver microsomes using dextromethorphan as substrate preincubated for 5 mins followed by NADPH cofactor addition and measured after 10 mins by LC-MS/MS analysis; format: ADME
Sequence of Cytochrome P450 2D6 (P10635 whole entry, the tested form may be a part): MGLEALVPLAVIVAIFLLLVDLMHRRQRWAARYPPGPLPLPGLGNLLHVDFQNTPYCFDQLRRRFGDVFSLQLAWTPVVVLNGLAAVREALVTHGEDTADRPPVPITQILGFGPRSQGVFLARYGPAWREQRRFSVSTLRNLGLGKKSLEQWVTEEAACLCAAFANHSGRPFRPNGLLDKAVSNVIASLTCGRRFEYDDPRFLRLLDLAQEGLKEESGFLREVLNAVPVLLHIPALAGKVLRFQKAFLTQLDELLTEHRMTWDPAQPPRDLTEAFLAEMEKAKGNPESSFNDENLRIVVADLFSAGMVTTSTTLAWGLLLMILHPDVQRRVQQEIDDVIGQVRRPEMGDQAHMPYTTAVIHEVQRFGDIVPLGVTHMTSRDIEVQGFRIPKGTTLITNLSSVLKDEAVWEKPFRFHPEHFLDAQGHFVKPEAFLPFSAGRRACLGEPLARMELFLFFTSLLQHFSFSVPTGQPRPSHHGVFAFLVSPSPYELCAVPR

[7] = tested on: CYP2C19; assay: Selectivity ratio of IC50 for CYP2C19 in human liver microsomes to IC50 for human transmembrane domain deficient FFAH expressed in Escherichia coli; format: toxicity; details: read-out: Ratio IC50
[8] = tested on: CYP2D6; assay: Selectivity ratio of IC50 for CYP2D6 in human liver microsomes to IC50 for rat FFAH expressed in Escherichia coli; format: toxicity; details: read-out: Ratio IC50
[9] = target: T1, Cytochrome P450 1A2 (Homo sapiens, UniProt P05177); assay: Inhibition of CYP1A2 in human liver microsomes using phenacetin as substrate preincubated for 5 mins followed by NADPH cofactor addition and measured after 10 mins by LC-MS/MS analysis; format: ADME
T1 sequence (P05177 whole entry): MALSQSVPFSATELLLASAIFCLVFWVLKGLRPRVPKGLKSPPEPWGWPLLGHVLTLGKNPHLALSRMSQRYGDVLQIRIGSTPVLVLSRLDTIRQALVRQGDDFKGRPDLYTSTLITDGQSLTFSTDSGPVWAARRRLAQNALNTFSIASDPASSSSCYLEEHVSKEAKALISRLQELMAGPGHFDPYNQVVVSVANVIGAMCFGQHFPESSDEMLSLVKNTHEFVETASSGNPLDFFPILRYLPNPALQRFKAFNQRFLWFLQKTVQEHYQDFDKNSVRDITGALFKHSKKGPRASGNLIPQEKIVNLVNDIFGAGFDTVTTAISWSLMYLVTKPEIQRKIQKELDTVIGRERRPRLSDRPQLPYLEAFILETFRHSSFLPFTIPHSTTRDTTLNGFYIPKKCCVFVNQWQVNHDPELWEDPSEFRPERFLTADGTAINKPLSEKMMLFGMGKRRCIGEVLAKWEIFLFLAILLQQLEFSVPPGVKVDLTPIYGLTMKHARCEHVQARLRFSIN

[10] = Drug level in plasma of Sprague-Dawley rat at 10 mg/kg, po administered as single dose via gavage measured at 8 hrs by LC-MS/MS analysis; format: ADME, organism-based
[11] = Drug level in plasma of Sprague-Dawley rat at 10 mg/kg, po administered as single dose via gavage measured at 24 hrs by LC-MS/MS analysis; format: ADME, organism-based
[12] = Drug level in plasma of Sprague-Dawley rat at 10 mg/kg, po administered as single dose via gavage measured at 48 hrs by LC-MS/MS analysis; format: ADME, organism-based
[13] = tested on: CYP2D6; assay: Selectivity ratio of IC50 for CYP2D6 in human liver microsomes to IC50 for human transmembrane domain deficient FFAH expressed in Escherichia coli; format: toxicity; details: read-out: Ratio IC50
[14] = Selectivity ratio of IC50 for MAGL (unknown origin) to IC50 for human transmembrane domain deficient FFAH expressed in Escherichia coli; format: toxicity
[15] = tested on: CYP1A2; assay: Selectivity ratio of IC50 for CYP1A2 in human liver microsomes to IC50 for human transmembrane domain deficient FFAH expressed in Escherichia coli; format: toxicity; details: read-out: Ratio IC50
[16] = Drug level in brain of Sprague-Dawley rat at 10 mg/kg, po administered as single dose via gavage measured at 48 hrs by LC-MS/MS analysis; format: ADME, organism-based; details: read-out: Drug uptake
[17] = Drug level in brain of Sprague-Dawley rat at 10 mg/kg, po administered as single dose via gavage measured at 8 hrs by LC-MS/MS analysis; format: ADME, organism-based; details: read-out: Drug uptake
[18] = Ratio of AUC (0 to 48 hrs) in liver to plasma of Sprague-Dawley rat at 10 mg/kg, po administered as single dose via gavage by LC-MS/MS analysis; format: ADME, organism-based; details: liver and plasma, read-out: Ratio AUC
[19] = Drug level in liver of Sprague-Dawley rat at 10 mg/kg, po administered as single dose via gavage measured at 32 hrs by LC-MS/MS analysis; format: ADME, organism-based; details: read-out: Drug uptake
[20] = target: Cytochrome P450 3A4 (Homo sapiens, UniProt P08684); assay: Inhibition of CYP3A4 in human liver microsomes using midazolam as substrate preincubated for 5 mins followed by NADPH cofactor addition and measured after 10 mins by LC-MS/MS analysis; format: ADME
Sequence of Cytochrome P450 3A4 (P08684 whole entry): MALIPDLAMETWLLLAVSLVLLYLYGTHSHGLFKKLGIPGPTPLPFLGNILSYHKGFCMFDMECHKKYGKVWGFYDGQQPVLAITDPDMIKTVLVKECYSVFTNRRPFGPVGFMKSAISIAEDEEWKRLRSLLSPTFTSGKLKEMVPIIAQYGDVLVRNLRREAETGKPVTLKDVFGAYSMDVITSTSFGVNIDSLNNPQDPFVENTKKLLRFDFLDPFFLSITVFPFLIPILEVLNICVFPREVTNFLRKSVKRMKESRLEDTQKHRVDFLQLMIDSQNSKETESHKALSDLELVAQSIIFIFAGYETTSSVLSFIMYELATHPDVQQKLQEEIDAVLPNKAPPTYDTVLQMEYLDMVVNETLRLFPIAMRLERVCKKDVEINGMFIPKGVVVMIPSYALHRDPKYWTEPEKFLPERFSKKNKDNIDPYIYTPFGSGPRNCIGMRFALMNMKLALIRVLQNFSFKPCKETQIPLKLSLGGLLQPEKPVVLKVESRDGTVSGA

[21] = Drug level in liver of Sprague-Dawley rat at 10 mg/kg, po administered as single dose via gavage measured at 4 hrs by LC-MS/MS analysis; format: ADME, organism-based; details: read-out: Drug uptake
[22] = Selectivity ratio of IC50 for MAGL (unknown origin) to IC50 for rat FFAH expressed in Escherichia coli; format: toxicity
[23] = AUC (0 to 48 hrs) in liver of Sprague-Dawley rat at 10 mg/kg, po administered as single dose via gavage by LC-MS/MS analysis; format: ADME, organism-based; design: time < 48 hr, dose 10 mg/kg, route oral
[24] = Ratio of drug level in brain to plasma in Sprague-Dawley rat at 3 mg/kg, iv or 10 mg/kg, po administered as single dose via gavage by LC-MS/MS analysis; format: ADME, organism-based; details: brain and plasma, read-out: BPR
[25] = Drug level in liver of Sprague-Dawley rat at 10 mg/kg, po administered as single dose via gavage measured at 24 hrs by LC-MS/MS analysis; format: ADME, organism-based; details: read-out: Drug uptake
[26] = Intrinsic metabolic stability in rat liver microsomes assessed as metabolic turnover over per mg protein at 1 uM preincubated for 5 mins followed by NADPH cofactor addition and measured after 30 mins by LC-MS/MS analysis; format: ADME, Microsome; details: 0.5 h
[27] = tested on: CYP2C19; assay: Selectivity ratio of IC50 for CYP2C19 in human liver microsomes to IC50 for rat FFAH expressed in Escherichia coli; format: toxicity; details: read-out: Ratio IC50
[28] = target: Cytochrome P450 2C9 (Homo sapiens, UniProt P11712); assay: Inhibition of CYP2C9 in human liver microsomes using diclofenac as substrate preincubated for 5 mins followed by NADPH cofactor addition and measured after 10 mins by LC-MS/MS analysis; format: ADME
Sequence of Cytochrome P450 2C9 (P11712 whole entry, the tested form may be a part): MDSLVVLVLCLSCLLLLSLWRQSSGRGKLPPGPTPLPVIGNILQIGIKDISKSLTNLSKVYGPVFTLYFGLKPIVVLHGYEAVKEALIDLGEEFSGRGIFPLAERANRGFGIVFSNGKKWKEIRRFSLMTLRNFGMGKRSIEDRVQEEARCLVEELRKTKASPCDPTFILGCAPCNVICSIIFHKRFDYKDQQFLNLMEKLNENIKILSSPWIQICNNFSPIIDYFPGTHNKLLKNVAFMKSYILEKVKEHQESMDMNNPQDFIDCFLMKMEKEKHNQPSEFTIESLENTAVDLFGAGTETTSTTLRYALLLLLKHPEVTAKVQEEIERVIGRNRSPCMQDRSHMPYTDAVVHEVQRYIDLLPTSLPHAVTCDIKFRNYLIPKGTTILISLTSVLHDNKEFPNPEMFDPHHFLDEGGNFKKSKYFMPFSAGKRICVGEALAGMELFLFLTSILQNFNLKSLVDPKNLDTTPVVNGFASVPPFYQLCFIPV

[29] = tested on: CYP3A4; assay: Selectivity ratio of IC50 for CYP3A4 in human liver microsomes using testosterone as substrate to IC50 for human transmembrane domain deficient FFAH expressed in Escherichia coli; format: toxicity; details: probe testosterone, read-out: Ratio IC50
[30] = Drug level in brain of Sprague-Dawley rat at 10 mg/kg, po administered as single dose via gavage measured at 4 hrs by LC-MS/MS analysis; format: ADME, organism-based; details: read-out: Drug uptake

SMILES	clearance [1]	concentration at 2 h [2]	concentration at 32 h [5]	IC50 [6]	IC50 [9]	concentration at 8 h [10]	concentration at 24 h [11]	concentration at 48 h [12]	concentration at 48 h [16]	concentration at 8 h [17]	Kp [18]	concentration at 32 h [19]	IC50 [20]	concentration at 4 h [21]	AUC(0-t) at 48 h [23]	Kp [24]	concentration at 24 h [25]	Drug metabolism [26]	IC50 [28]	concentration at 4 h [30]	further results
Nc1ncc(C(=O)N[C@H]2CC/C(=C\c3cccc(Oc4ccc(C(F)(F)F)cn4)c3)CC2)cn1 (stereo not given)	0.6 mL/min/kg	7.2 µM	2.7 µM	> 12.5 µM	> 12.5 µM	7.3 µM	7 µM	1.3 µM	1.1 µM	7.2 µM	4.3	13 µM	> 12.5 µM	38 µM	1020 µM·h	0.8	23 µM	≤ 0.04 nmol/min/mg	6.5 µM	6.3 µM	selectivity ratio [3]: > 5000; selectivity ratio [4]: > 5000; selectivity ratio [7]: > 5000; selectivity ratio [8]: > 5000; selectivity ratio [13]: > 5000; Ratio IC50 [14]: > 10000; selectivity ratio [15]: > 5000; Ratio IC50 [22]: > 10000; selectivity ratio [27]: > 5000; selectivity ratio [29]: > 5000
Nc1ccc(C(=O)N[C@H]2CC/C(=C\c3cccc(Oc4ccc(C(F)(F)F)cn4)c3)CC2)cn1 (stereo not given)	0.7 mL/min/kg	8.8 µM	2.2 µM	> 12.5 µM	> 12.5 µM	8.2 µM	4.4 µM	1 µM	0.7 µM	5.2 µM	9.2	26.5 µM	> 12.5 µM	69.7 µM	1950 µM·h	0.6	33 µM	–	3.4 µM	4.5 µM	–
O=C(N[C@H]1CC/C(=C\c2cccc(Oc3ccc(C(F)(F)F)cn3)c2)CC1)c1cccnc1 (stereo not given)	2.4 mL/min/kg	7.2 µM	–	> 10 µM	> 10 µM	3 µM	0.5 µM	–	–	4.7 µM	10.5	–	2.4 µM	43 µM	580 µM·h	1.5	7.7 µM	< 0.04 nmol/min/mg	2.7 µM	6 µM	–
Cc1cc(C(=O)N[C@H]2CC/C(=C\c3cccc(Oc4ccc(C(F)(F)F)cn4)c3)CC2)cnc1N (stereo not given)	0.8 mL/min/kg	6.7 µM	3 µM	> 12.5 µM	> 12.5 µM	5.3 µM	3.3 µM	1.1 µM	0.6 µM	3.2 µM	6.9	20 µM	> 12.5 µM	37 µM	1130 µM·h	0.5	22 µM	0.04 to 0.09 nmol/min/mg	9.2 µM	3.1 µM	selectivity ratio [3]: > 5000; selectivity ratio [4]: > 5000; selectivity ratio [7]: > 5000; selectivity ratio [8]: > 5000; selectivity ratio [13]: > 5000; Ratio IC50 [14]: > 10000; selectivity ratio [15]: > 5000; Ratio IC50 [22]: > 10000; selectivity ratio [27]: > 5000; selectivity ratio [29]: > 5000
